Patent US8846330B2, “Methods and kits for the diagnosis of RyR1-related diseases” (The Henry M. Jackson Foundation for the Advancement of …, priority 2008, dated 2014)

Test system: lymphocyte cells
Assay: 4CmC-induced adenosine plus inosine in cultured swine lymphocytes (Example 2)
Type: cell-based
Settings: for adenosine plus inosine level upon stimulation with 4CmC, mean±SEM: 5 mM 4CmC
Description: Lymphocyte cells were isolated from whole arterial blood sample (40 ml) obtained from homozygous recessive MHS (n=5) and normal (n=3) swine by the Ficoll-Hypaque centrifugation technique. Lymphocyte cells were then cultured in RPMI-1640 media supplemented with 10% fetal bovine serum plus 100 units/liter penicillin at 37° C. under 5% CO2 for 2 to 3 weeks. After cell culture period, cell's (5−15×10^4 cells) were suspended in Hanks' balanced salt solution (HBSS)+1% bovine serum albumin and treated with specific RyR1 agonist 4-chloro-m-cresol (4CmC, 5 mM) at 37° C. in the presence and absence of inhibitor of adenosine deaminase erythro-9-(2-hydroxy-3-nonyl) adenine (EHNA, 0.1 mM) for 30 minutes. After purification using 12% HClO4 followed by centrifugation (10 minutes, 4000 RPM), aliquot of sample (50 μl) was assayed for adenosine and inosine content using high performance liquid chromatography (HPLC). Data are normalized to per 1 million cells, compared using one way ANOVA, and presented as mean±SEM. P<0.05 considered significant.

Compound: Cc1cc(O)ccc1Cl [4CmC, 4-chloro-m-cresol]
- adenosine plus inosine level upon stimulation with 4CmC, mean±SEM (MHS swine (n=5)): 8.06 ± 0.9 µM
- adenosine plus inosine level upon stimulation with 4CmC, mean±SEM (normal swine (n=3)): 1.16 ± 0.3 µM
- increase of nucleoside production on 4CmC stimulation (lymphocytes from MHS swine): nine-fold increase
- effect of 4CmC stimulation on nucleoside (adenosine plus inosine) production (lymphocytes from normal swine): minimal, if any, effect
